Test results as given in ChEMBL document CHEMBL2440105, “Synthesis and anti-parasitic activity of a novel quinolinone-chalcone series” (Bioorg Med Chem Lett, 2013).

Key:
[1] = system: Trypanosoma brucei brucei; assay: Trypanocidal activity against bloodstream forms of Trypanosoma brucei brucei Lister 427 clone 221a after 72 hrs by AlamarBlue assay; type: functional, organism-based
THP-1 [2] = assay: Cytotoxicity against human THP1 cells after 72 hrs by MTT assay; type: cell-based; conditions: THP-1, 72 h
Leishmania infantum = assay: Antileishmanial activity against Leishmania infantum MOM/MA671TMAP263 axenic amastigotes infected in THP1 cells after 72 hrs by luciferase reporter gene assay; type: functional, organism-based; conditions: MOM/MA671TMAP263, THP-1, 72 h
THP-1 [3] = assay: Cytotoxicity against human THP1 cells by AlamarBlue assay

Compound | IC50 (Leishmania infantum) | IC50 [1] | IC50 (THP-1 [2]) | IC50 (THP-1 [3])
COc1ccc(/C=C/C(=O)c2c(O)c3ccccc3n(Cc3ccccc3)c2=O)cc1OC | > 25 µM | 5.68 µM | 28.7 µM | 
O=C(/C=C/C=C/c1ccccc1)c1c(O)c2ccccc2[nH]c1=O | > 50 µM | > 10 µM | > 50 µM | 
CC(/C=C/C(=O)c1c(O)c2ccccc2[nH]c1=O)=C\c1ccccc1 | 20 µM | > 10 µM | > 50 µM | 
COc1ccc(C2CC(c3c(O)c4ccccc4[nH]c3=O)=NN2c2ccccc2)cc1OC (stereo not drawn) | 13.5 µM | 1.46 µM | > 50 µM | 
O=C(/C=C/c1ccc([N+](=O)[O-])cc1)c1c(O)c2ccccc2[nH]c1=O | 26.9 µM | > 10 µM | > 50 µM | 
COc1ccc(/C=C/C(=O)c2c(O)c3ccccc3[nH]c2=O)cc1 | 12.7 µM | > 10 µM | > 50 µM | 
O=C(O)c1ccc(/C=C/C(=O)c2c(O)c3ccccc3[nH]c2=O)cc1 | 18.4 µM | > 10 µM | > 50 µM | 
CC1CS(=O)(=O)CCN1/N=C/c1ccc([N+](=O)[O-])o1 (stereo not drawn) [NIFURTIMOX] |  | 2.9 µM |  | > 100 µM
COc1cccc(/C=C/C(=O)c2c(O)c3ccccc3[nH]c2=O)c1 | 28.4 µM | 6.5 µM | 38.5 µM | 
Cc1ccccc1/C=C/C(=O)c1c(O)c2ccccc2[nH]c1=O | > 50 µM | 2.6 µM | > 50 µM | 
CCn1c(=O)c(C(=O)/C=C/c2ccccc2C)c(O)c2ccccc21 | 24.8 µM | > 10 µM | > 50 µM | 
Cc1ccccc1/C=C/C(=O)c1c(O)c2ccccc2n(Cc2ccccc2)c1=O | > 25 µM | 6.17 µM | 45.7 µM | 
CCn1c(=O)c(C(=O)/C=C/c2ccc(OC)c(OC)c2)c(O)c2ccccc21 | > 50 µM | > 10 µM | > 50 µM | 

Now from value to compound, other results behind:

IC50 (Leishmania infantum) | Compound | IC50 [1] | IC50 (THP-1 [2]) | IC50 (THP-1 [3])
1.3 µM | CC(C)(C)c1cc(/C=C/C(=O)c2c(O)c3ccccc3[nH]c2=O)cc(C(C)(C)C)c1O | 3.3 µM | 26.2 µM | 
0.71 µM | CC(=O)N1N=C(c2c(O)c3ccccc3[nH]c2=O)CC1c1ccccc1C (stereo not drawn) | 1.43 µM | 4.15 µM | 
11.5 µM | COc1cc(/C=C/C(=O)c2c(O)c3ccccc3[nH]c2=O)ccc1O | 4.9 µM | 23.3 µM | 
1.2 µM | C[C@@H]1[C@H](O)[C@@H](C)/C=C/C=C/C=C/C=C/C=C/C=C/C=C/[C@H](O[C@@H]2O[C@H](C)[C@@H](O)[C@H](N)[C@@H]2O)C[C@@H]2O[C@](O)(C[C@@H](O)C[C@@H](O)[C@H](O)CC[C@@H](O)C[C@@H](O)CC(=O)O[C@H]1C)C[C@H](O)[C@H]2C(=O)O [AMPHOTERICIN B] |  | 23.8 µM | 
2.1 µM | Cc1ccc(/C=C/C(=O)c2c(O)c3ccccc3[nH]c2=O)cc1 | > 10 µM | > 50 µM | 
7.5 µM | COc1ccc(/C=C/C(=O)c2c(O)c3ccccc3[nH]c2=O)cc1OC | 4.9 µM | > 50 µM | 
3.1 µM | O=C(/C=C/c1ccc(C(F)(F)F)cc1)c1c(O)c2ccccc2[nH]c1=O | > 10 µM | > 50 µM | 
